We go through 25 compounds from ChEMBL document CHEMBL6087456 (J Med Chem, 2025).

The target of data set [1] is T1, Dihydroorotate dehydrogenase (quinone), mitochondrial (Plasmodium falciparum (isolate 3D7), UniProt Q08210).
T1 sequence (Q08210 whole entry): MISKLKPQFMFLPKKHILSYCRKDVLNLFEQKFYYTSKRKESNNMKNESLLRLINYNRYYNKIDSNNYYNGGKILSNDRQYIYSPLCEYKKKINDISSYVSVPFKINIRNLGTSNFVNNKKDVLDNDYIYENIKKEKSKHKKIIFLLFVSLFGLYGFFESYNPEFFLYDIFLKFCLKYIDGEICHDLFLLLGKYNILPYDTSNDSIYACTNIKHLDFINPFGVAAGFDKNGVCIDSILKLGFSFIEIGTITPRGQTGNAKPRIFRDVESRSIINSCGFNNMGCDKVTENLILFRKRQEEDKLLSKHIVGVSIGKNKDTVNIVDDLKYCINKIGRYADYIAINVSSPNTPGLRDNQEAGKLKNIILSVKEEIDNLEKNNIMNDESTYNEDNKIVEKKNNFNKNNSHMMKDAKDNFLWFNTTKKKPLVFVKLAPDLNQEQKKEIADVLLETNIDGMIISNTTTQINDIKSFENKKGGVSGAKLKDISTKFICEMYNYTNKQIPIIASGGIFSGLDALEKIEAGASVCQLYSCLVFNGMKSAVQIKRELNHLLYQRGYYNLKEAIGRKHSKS
Nature of the data set: Inhibition of N-terminal His6-tagged recombinant Plasmodium falciparum DHODH (158 to 569 residues) N-terminally truncated soluble domain extracted from Escherichia coli phage resistant BL21-DE3 using CoQD/DHA/DCIP as substrates.

Data set [2] in a line: Kinetic solubility of compound at pH 6.5 measured after 30 mins by nephelometry. It is filed as physicochemical. The following applies: buffer; for Kinetic_solubility: pH 6.5, 0.5 h; for solubility kinetic at 0.5 h: pH 6.5, read-out: Kinetic_solubility.
The nature of data set [3]: Metabolic stability in human liver microsomes assessed as intrinsic clearance at 0.5 uM incubated for 60 mins in presence of NADPH by tandem quadrupole-Time of Flight MS. It counts as ADME, Microsome. The following applies: 1 h. A general note: Liver microsomes are vesicles of endoplasmic reticulum, rich in cytochrome P450 enzymes.
Data set [4] deals with Dihydroorotate dehydrogenase (quinone), mitochondrial (Homo sapiens, UniProt Q02127). Nature of the data set: Inhibition of C-terminal His6-tagged recombinant human DHODH (29 to 395 residues) N-terminally truncated soluble domain extracted from Escherichia coli phage resistant BL21-DE3 using CoQD/DHA/DCIP as substrates.
The test system of the next data set is Plasmodium falciparum. The data set can be described thus: Antiparasitic activity against asexual blood stage Plasmodium falciparum 3D7 incubated for 72 hrs by SYBR Green assay. It is filed as functional, organism-based. The settings on record: 3D7, 72 h.

Converted amounts (≈) assume the structure as drawn.

Sequence of Dihydroorotate dehydrogenase (quinone), mitochondrial (Homo sapiens, UniProt Q02127) (Q02127 whole entry, the tested form may be a part): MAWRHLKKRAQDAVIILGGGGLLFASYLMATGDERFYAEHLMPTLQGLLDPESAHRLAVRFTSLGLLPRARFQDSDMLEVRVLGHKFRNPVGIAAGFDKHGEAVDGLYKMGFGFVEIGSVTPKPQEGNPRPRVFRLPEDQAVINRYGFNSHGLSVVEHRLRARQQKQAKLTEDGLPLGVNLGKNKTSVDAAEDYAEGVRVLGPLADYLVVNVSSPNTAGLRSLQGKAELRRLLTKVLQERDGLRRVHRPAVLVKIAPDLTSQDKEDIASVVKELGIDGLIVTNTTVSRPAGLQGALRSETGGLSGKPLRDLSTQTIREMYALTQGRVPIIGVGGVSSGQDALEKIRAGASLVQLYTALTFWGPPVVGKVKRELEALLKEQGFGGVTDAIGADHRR

As usually defined, the IC50 is the concentration at which inhibition is half-maximal. Usually EC50 stands for the concentration needed to bring the measured effect to its halfway point. Read a high EC50 as a less potent agent. With `CCn1cc(C)c2c(Cc3ccc(C(F)(F)F)nc3)n(C)nc2c1=O`, the IC50 was 0.07 µM in data set [1] and over 100 µM in data set [4]. Moreover, the Kinetic_solubility in data set [2] was over 280 µM. Further, the “intrinsic clearance (CLint)” value in data set [3] was under 7 µL/min/mg. In the data set with Plasmodium falciparum, this compound gave an EC50 of 0.044 µM.

With `Cn1nc2c(=O)n(C3CC3)cnc2c1[C@](O)(c1ccc(C(F)(F)F)c(Cl)c1)C(F)(F)F`, the values for the IC50 in data set [1] and in data set [4] were 0.005 µM and 6.5 µM, respectively. Further, the solubility kinetic at 0.5 h in data set [2] came out at 20 µM (≈ 9.34 µg/mL). In addition, the “intrinsic clearance (CLint)” value in data set [3] was under 3 µL/min/mg. In addition, the EC50 in the data set on Plasmodium falciparum was determined as 77 µM.

Take `CC(C)n1ccc2c(Cc3ccc(C(F)(F)F)nc3)n(C)nc2c1=O`: the IC50 in data set [1] is 14 µM; in data set [4], over 100 µM. The compound also came in with an EC50 with Plasmodium falciparum of 6.6 µM.

As for `Cn1nc2c(=O)n(C3CC3)ccc2c1Cc1ccc(C(F)(F)F)c(C#N)c1`, the IC50 is 0.14 µM in data set [1] and over 100 µM in data set [4]. Moreover, the solubility kinetic at 0.5 h in data set [2] came out at 67 µM (≈ 24.9 µg/mL). Further, the “intrinsic clearance (CLint)” value in data set [3] is under 7 µL/min/mg. The compound also showed an EC50 in the data set on Plasmodium falciparum of 0.081 µM.

With `CC[C@@](N)(c1ccc(C(F)(F)F)c(Cl)c1)c1c2ncn(C3CC3)c(=O)c2nn1C`, the IC50 in data set [1] came out at 0.009 µM. This compound displayed a Kinetic_solubility in data set [2] of over 100 µM. Moreover, the “intrinsic clearance (CLint)” value in data set [3] was under 3 µL/min/mg. In addition, the EC50 with Plasmodium falciparum stood at 0.001 µM.

For the compound `Cn1nc2c(=O)n(C3CC3)ccc2c1[C@](O)(c1ccc(C(F)(F)F)c(C#N)c1)C1CC1`, the IC50 was 0.018 µM in data set [1] and over 30 µM in data set [4]. In addition, the Kinetic_solubility in data set [2] is under 5 µM. Also, the “intrinsic clearance (CLint)” value in data set [3] is under 3 µL/min/mg. This compound also gave an EC50 in the data set on Plasmodium falciparum of 0.001 µM.

For the compound `Cn1nc2c(=O)n(C3CC3)ccc2c1Cc1ccc(C(F)(F)F)nc1`, the IC50 was 0.91 µM in data set [1] and over 100 µM in data set [4]. A half-maximal effect in the data set on Plasmodium falciparum (EC50) was put at 0.59 µM.

For `CCn1cc(C2CC2)c2c(CN3CCC4(CCC4)CC3)n(C)nc2c1=O`, the figures for the half-maximal inhibitory concentration (IC50) in data set [1] and in data set [4] were 0.008 µM and 22 µM, respectively. Moreover, the solubility kinetic at 0.5 h in data set [2] was 80 µM (≈ 28.4 µg/mL). The “intrinsic clearance (CLint)” value in data set [3] was determined as 130 µL/min/mg. The midpoint of the response with Plasmodium falciparum, the EC50, lay at 0.015 µM.

For the compound `CCn1ccc2c([C@@](O)(CC)c3cnc(C(F)(F)F)c(Cl)c3)n(C)nc2c1=O`, the IC50 in data set [1] came out at 0.027 µM. For the same compound, the solubility kinetic at 0.5 h in data set [2] stood at 40 µM (≈ 16.6 µg/mL). The “intrinsic clearance (CLint)” value in data set [3] amounted to 9.3 µL/min/mg.

Turning to `CCn1cc(Cl)c2c(Cc3ccc(N4CCCCC4)nc3)n(C)nc2c1=O`, the IC50 in data set [1] came out at 0.017 µM; in data set [4], 5.4 µM. In addition, in data set [2], the solubility kinetic at 0.5 h was determined as 40 µM (≈ 15.4 µg/mL). In addition, the “intrinsic clearance (CLint)” value in data set [3] came to 160 µL/min/mg. The same compound returned an EC50 in the data set with Plasmodium falciparum of 0.062 µM.

Regarding `CC[C@@](O)(c1ccc(C(F)(F)F)c(Cl)c1)c1c2cnn(C3CC3)c(=O)c2nn1C`, the IC50 in data set [1] was found to be 0.006 µM. For the same compound, in data set [2], the solubility kinetic at 0.5 h worked out at 6.25 µM (≈ 2.67 µg/mL). Besides, the “intrinsic clearance (CLint)” value in data set [3] is under 3 µL/min/mg.

As for `Cn1nc2c(=O)n(C3CC3)ncc2c1[C@](O)(c1ccc(C(F)(F)F)c(C#N)c1)C(F)(F)F`, the results for the IC50 in data set [1] and in data set [4] were 0.019 µM and over 30 µM, respectively. For the same compound, in data set [2], the solubility kinetic at 0.5 h is 20 µM (≈ 9.15 µg/mL). Also, in data set [3], the “intrinsic clearance (CLint)” value was under 3 µL/min/mg. In the data set with Plasmodium falciparum, this compound had an EC50 of 0.001 µM.

Regarding `CCn1cc(C2CC2)c2c(CN3CCC(F)(F)C(C)(C)C3)n(C)nc2c1=O`, the IC50 in data set [1] is 0.021 µM; in data set [4], over 30 µM. The solubility kinetic at 0.5 h in data set [2] is 12.5 µM (≈ 4.73 µg/mL). Further, in data set [3], the “intrinsic clearance (CLint)” value amounted to 160 µL/min/mg. In the data set on Plasmodium falciparum, this compound registered an EC50 of 0.015 µM.

With `CC[C@@](O)(c1ccc(F)c(Cl)c1)c1c2ccn(C3CC3)c(=O)c2nn1C`, the values for the IC50 in data set [1] and in data set [4] were 0.007 µM and 0.7 µM, respectively. Also, the solubility kinetic at 0.5 h in data set [2] is 40 µM (≈ 15 µg/mL). In addition, the “intrinsic clearance (CLint)” value in data set [3] came out at 8.4 µL/min/mg. It took 0.001 µM to reach a half-maximal effect with Plasmodium falciparum (EC50).

With `CCn1cc(C2CC2)c2c(Cc3ccc(C(F)(F)F)c(C#N)c3)n(C)nc2c1=O`, the values for the IC50 in data set [1] and in data set [4] were 0.015 µM and 11 µM, respectively. The solubility kinetic at 0.5 h in data set [2] worked out at 15 µM (≈ 6.01 µg/mL). For the same compound, the “intrinsic clearance (CLint)” value in data set [3] worked out at 64 µL/min/mg. In addition, the EC50 in the data set on Plasmodium falciparum worked out at 0.004 µM.

As for `CC[C@@](O)(c1ccc(C(F)(F)F)c(C#N)c1)c1c2ccn(C3CC3)c(=O)c2nn1C`, the figures for the IC50 in data set [1] and in data set [4] were 0.019 µM and 0.96 µM, respectively. Further, in data set [2], the solubility kinetic at 0.5 h amounted to 20 µM (≈ 8.33 µg/mL). The “intrinsic clearance (CLint)” value in data set [3] was under 3 µL/min/mg. In the data set with Plasmodium falciparum, this compound registered an EC50 of 0.001 µM.

Take `CCn1cc(C2CC2)c2c(Cc3ccc(C(F)(F)F)c(F)c3)n(C)nc2c1=O`: the IC50 is 0.014 µM in data set [1] and 14 µM in data set [4]. Further, the solubility kinetic at 0.5 h in data set [2] amounted to 16 µM (≈ 6.29 µg/mL). Also, the “intrinsic clearance (CLint)” value in data set [3] is 52 µL/min/mg. The same compound came in with an EC50 with Plasmodium falciparum of 0.008 µM.

Turning to `Cc1cn(C2CC2)c(=O)c2nn(C)c(Cc3ccc(C(F)(F)F)nc3)c12`, the results for the IC50 in data set [1] and in data set [4] were 0.089 µM and 52 µM, respectively. The solubility kinetic at 0.5 h in data set [2] was found to be 130 µM (≈ 47.1 µg/mL). In addition, the “intrinsic clearance (CLint)” value in data set [3] is under 7 µL/min/mg. Also, in the data set with Plasmodium falciparum, a half-maximal response (EC50) required 0.045 µM.

For the compound `Cn1nc2c(=O)n(C3CC3)ncc2c1[C@](O)(c1ccc(C(F)(F)F)c(Cl)c1)C(F)(F)F`, the IC50 turned out to be 0.009 µM in data set [1] and 22 µM in data set [4]. The solubility kinetic at 0.5 h in data set [2] is 5 µM (≈ 2.33 µg/mL). The “intrinsic clearance (CLint)” value in data set [3] was under 3 µL/min/mg.

As for `Cn1nc2c(=O)n(C3CC3)cc(C3CC3)c2c1Cc1ccc(C(F)(F)F)nc1`, the IC50 was 0.043 µM in data set [1] and 17 µM in data set [4]. Also, in data set [2], the solubility kinetic at 0.5 h came to 65 µM (≈ 25.2 µg/mL). Besides, the “intrinsic clearance (CLint)” value in data set [3] is under 7 µL/min/mg. The same compound yielded an EC50 with Plasmodium falciparum of 0.032 µM.

On to `CCn1cc(Cl)c2c(Cc3ccc(N4CCOCC4)nc3)n(C)nc2c1=O`, for which the IC50 is 0.19 µM in data set [1] and over 100 µM in data set [4]. The solubility kinetic at 0.5 h in data set [2] came to 65 µM (≈ 25.2 µg/mL). Besides, in data set [3], the “intrinsic clearance (CLint)” value is 15 µL/min/mg. This compound came in with an EC50 in the data set on Plasmodium falciparum of 0.37 µM.

For `Cn1nc2c(=O)n(C3CC3)cnc2c1[C@](O)(c1ccc(C(F)(F)F)c(C#N)c1)C(F)(F)F`, the IC50 came to 0.014 µM in data set [1] and 18 µM in data set [4]. For the same compound, the solubility kinetic at 0.5 h in data set [2] came out at 40 µM (≈ 18.3 µg/mL). Also, the “intrinsic clearance (CLint)” value in data set [3] is under 3 µL/min/mg.

For `CCn1ccc2c(Cc3ccc(C(F)(F)F)nc3)n(C)nc2c1=O`, the concentration for half-maximal inhibition (IC50) is 1.5 µM in data set [1] and over 30 µM in data set [4]. This compound showed a Kinetic_solubility in data set [2] of over 300 µM. For the same compound, the “intrinsic clearance (CLint)” value in data set [3] is under 7 µL/min/mg. In the data set on Plasmodium falciparum, this compound registered an EC50 of 0.58 µM.

Take `CCn1cc(C2CC2)c2c(Cc3cnc(C(F)(F)F)c(OC)c3)n(C)nc2c1=O`: the IC50 is 0.057 µM in data set [1] and over 100 µM in data set [4]. Further, in data set [2], the solubility kinetic at 0.5 h was found to be 60 µM (≈ 24.4 µg/mL). Moreover, the “intrinsic clearance (CLint)” value in data set [3] turned out to be 25 µL/min/mg. This compound returned an EC50 in the data set on Plasmodium falciparum of 0.017 µM.

Regarding `CCn1cc(C2CC2)c2c([C@H](N)c3ccc(C(F)(F)F)nc3)n(C)nc2c1=O`, the IC50 is 0.18 µM in data set [1] and over 100 µM in data set [4]. Moreover, the Kinetic_solubility in data set [2] is over 320 µM. Further, in data set [3], the “intrinsic clearance (CLint)” value turned out to be 3.8 µL/min/mg. Further, the EC50 with Plasmodium falciparum was found to be 0.027 µM.
